Test results: US11358863B2, “Method and composition of humidity-controlled generation of chlorine dioxide in polymers and superabsorbent hydrogels” (priority 2017, dated 2022)

What was measured:
Assay type in all cases: cell-based
[1] = system: Bacillus atrophaeus spores; experiment: Clamshell package with chlorite/HMS absorbent pad in humid desiccator: ethylene oxide gas sterility test strip; conditions: gaseous ClO2 about 25-50 ppm after 24 hours, 89% RH, 35° C.
Excerpt: (§1) We tested a clamshell package made of plastic (commonly PLA or polyethylene terephthalate (PET)), typical of the packaging used to contain fresh produce or berries as sold in supermarkets, convenience stores, and other grocery stores. These clamshell packages have vent holes that allow the free-flow exchange of gases between the interior of the package and its surrounding environment.
(§2) A beaker with two ClO2 indicator test strips (high range, 0-500 ppm), one Geobacillus stearothermophilus 7953 autoclave sterility test strip and one Bacillus atrophaeus ethylene oxide gas sterility test strip, was placed inside the clamshell package. A piece of blue material comprising non-woven textiles and superabsorbent hydrogel, characteristic of a common disposable diaper, was cut into a 3×1 inch rectangle. Dry sodium chlorite and dry HMS were placed on spatially separate regions of the material. The blue absorbent pad was sprayed with a small amount of water, and then folded in half. The entire clamshell package (containing the indicator strips, microbial test strips, and blue pad with reactive reagents) was placed inside a desiccator charged with […] The entire desiccator assembly, containing the salt solution in the bottom and the clamshell package above the solution on a perforated platform, was placed inside an incubator at 35° C., which re-equilibrated and increased RH to 89%. […]

[2] = system: Geobacillus stearothermophilus 7953 spores; experiment: Clamshell package with chlorite/HMS absorbent pad in humid desiccator: autoclave sterility test strip; conditions: gaseous ClO2 about 25-50 ppm after 24 hours, 89% RH, 35° C.
Excerpt: as §1
as §2, with “a” for “a desiccator charged with”

[3] = system: spores of Bacillus cereus; experiment: Microbiological validation of aqueous ClO2 using Bacillus cereus spores, serial dilutions and plate-counting on Nutrient Agar; conditions: dilutions 1-10^-6, NA plates 18 hours at 37° C.
[4] = system: mold on cotton-based parachute sleeve; experiment: Mold growth on moldy cotton parachute sleeve sample on Potato Dextrose Agar after ClO2 treatment; conditions: 10 mL of 100 ppm ClO2 solution, mixed intermittently over 20 minutes, quenched; stored at 30° C. for 5 days
Protocol: Dry reagents of HMS and chlorite ion were added to distilled de-ionized water to produce chlorine dioxide. A cotton-based parachute sleeve that is characteristically used to hold and release parachutes during jumps and to store folded parachutes after jumps was chosen for use. […] Approximately 1×1 in^2 was cut from a parachute sleeve and placed using sterile forceps into a Petri dish of sterile Potato Dextrose Agar (PDA) with a few drops of sterile water. […] A 1×1 in^2 sample was removed from the moldy dish using a sterile technique and placed in a new sterile Petri dish of PDA with sterile water. A second 1×1 in^2 sample was placed in a plastic pouch with 10 mL of 100 ppm ClO2 solution and mixed in a paddle-blender for 2 minutes intermittently over a 20 minute period. At 20 min, reductant was added to quench any excess ClO2, and the sample was placed on a fresh Petri dish of PDA. Both samples were stored at 30° C. for 5 days.

[O][Cl+][O-] [ClO2, chlorine dioxide]
microbial growth of B. atrophaeus indicator test strip [1]: negative for microbial growth | microbial growth of G. stearothermophilus indicator test strip [2]: negative for microbial growth | growth of B. cereus from inoculated protective garment fabric ([3]; 10 microliter inoculum on 1×1 in^2 fabric, 100 ppm ClO2 solution, paddle-blender 15 min, quenched): no discernible growth | colonies on NA plates (plate-counts) ([3]; B. cereus spore inoculum in 10 mL of 100 ppm aqueous ClO2 solution, paddle-stomacher 15 min, quenched with reductant): no discernible colonies | mold growth on cotton sleeve sample and PDA [4]: no signs of mold growth
